“And” between values parts separate entries of the source, which are not always exact repeats. Equal values may be shown once.
Experiments:
R878A PARP-1 = R878A PARP-1 (Homo sapiens, UniProt P09874, R878A); experiment: fluorescence polarization DNA competition and affinity assays, R878A mutant; assay type: binding; settings: with AZ0108
Protocol: FIG. 4B) Helical domain (pink cartoon) movement observed during the simulation, the red arrows indicate length and direction of movement. FIG. 4C) The residue-residue distance observed between the Ca atoms R878-D770 and Y889-V758, the increased distance sampling corresponds to the helical domain movement. FIG. 4D) PARP-1 WT, D770A, or R878A (40 nM) was incubated with a dumbbell DNA probe carrying an internal FAM group and a central nick at 20 nM with or without compound (25 μM) for 30 minutes. An unlabeled competitor was added and the decrease in fluorescence polarization was measured across time. FIG. 4E) The Kd of PARP-1 WT, D770A, or R878A for a DNA dumbbell probe containing a central nick (5 nM) was measured in a fluorescence polarization assay with and without inhibitor (5 μM). Error bars represent Standard Error of the Mean (SEM) (n=3).

PARP-1 [1] = molecular target: T1, PARP-1 (Homo sapiens, UniProt P09874); experiment: PARP-1 auto-PARylation activity assay in cells; assay type: cell-based
T1 sequence (P09874 whole entry): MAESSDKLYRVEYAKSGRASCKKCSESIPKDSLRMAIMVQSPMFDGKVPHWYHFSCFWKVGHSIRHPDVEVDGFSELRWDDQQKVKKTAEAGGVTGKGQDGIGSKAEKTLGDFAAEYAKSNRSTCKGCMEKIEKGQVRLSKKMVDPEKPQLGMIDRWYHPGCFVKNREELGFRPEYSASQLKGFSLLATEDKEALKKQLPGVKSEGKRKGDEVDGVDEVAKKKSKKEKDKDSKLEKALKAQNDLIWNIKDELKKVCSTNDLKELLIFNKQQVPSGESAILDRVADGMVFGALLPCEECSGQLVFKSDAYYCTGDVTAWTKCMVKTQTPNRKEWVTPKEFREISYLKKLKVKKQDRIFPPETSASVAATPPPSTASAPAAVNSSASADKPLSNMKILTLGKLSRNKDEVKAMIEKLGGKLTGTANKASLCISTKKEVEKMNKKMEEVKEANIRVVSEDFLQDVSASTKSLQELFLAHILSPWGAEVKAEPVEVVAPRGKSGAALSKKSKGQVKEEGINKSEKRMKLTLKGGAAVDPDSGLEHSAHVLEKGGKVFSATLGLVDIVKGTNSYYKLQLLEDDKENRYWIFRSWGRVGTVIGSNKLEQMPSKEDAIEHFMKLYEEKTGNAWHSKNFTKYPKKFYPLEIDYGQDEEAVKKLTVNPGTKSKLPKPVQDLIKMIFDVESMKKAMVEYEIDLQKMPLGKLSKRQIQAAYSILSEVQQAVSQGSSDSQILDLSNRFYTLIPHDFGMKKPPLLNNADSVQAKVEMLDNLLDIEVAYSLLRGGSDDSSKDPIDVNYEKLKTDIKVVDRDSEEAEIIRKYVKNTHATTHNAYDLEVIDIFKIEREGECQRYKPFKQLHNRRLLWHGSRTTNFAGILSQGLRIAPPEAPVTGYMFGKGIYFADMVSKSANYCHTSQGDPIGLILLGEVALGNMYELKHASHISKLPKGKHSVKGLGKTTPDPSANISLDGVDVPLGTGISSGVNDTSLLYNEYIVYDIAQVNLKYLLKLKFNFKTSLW
Protocol: Cells were washed with PBS, and lysed in RIPA buffer (50 mM Tris-HCl [pH 8.0], 150 mM NaCl, 0.1% SDS, 1% Triton X-100, 1× cOmplete™ protease inhibitors (Roche), and 1 μM Veliparib). […] Following quantification, 4× Laemmli sample buffer with 5% β-mercaptoethanol was added to 25-50 μg of protein.
Membrane blots were blocked with 5% milk-PBST for 1 h at RT, followed by incubation with a rabbit pan-ADP-ribose binding reagent (Cell Signaling), a rabbit PARP-1 antibody (Bethyl Laboratories), or a mouse b-actin antibody (Santa Cruz Biotechnology) for 2 h at RT, followed by incubation with HRP-conjugated secondary antibodies. […] Blots were imaged for chemiluminescent signal on a ChemiDoc MP system (BioRad). Statistical significance was established through multiple unpaired t-tests with nonlinear regression fit analysis.
FIGS. 5A-5F. […] An unlabeled competitor was added and the decrease in fluorescence polarization was measured across time. […] Error bars represent SEM. […] Error bars represent SEM. […] Cells were subsequently lysed using RIPA buffer, run out on SDS-PAGE, and probed for ADPr (Cell Signaling) and PARP-1 (Bethyl Laboratories). FIG. 5F) Quantification of western blot images. ADPr values are normalized to PARP-1 within each replicate and plotted as percentage compared to DMSO. Error bars indicate SEM (n=3).

PARP-1 [2] = molecular target: T1, PARP-1; experiment: in-cell competition labeling with ad-olaparib photoaffinity probe; assay type: cell-based
Protocol: Photocrosslinking in intact cells. HEK293 CRL and PARP-1 KO cells were grown in DMEM for 2 days in a 60 mm dish for 2 days to reach 80-90% confluency. […] Cells were then washed once with PBS, covered with PBS and irradiated for 5 min in the RPR-100 Photochemical Reactor (Rayonet) equipped with 350 nm lamps at 4° C. Cells were lysed on ice in 1% SDS, 1% Triton X-100 and EDTA-free protease inhibitor cocktail (Roche) in PBS for 10 min and then probe sonicated to shear the nuclear DNA. Protein concentration was determined with Bio-Rad Protein assay. The lysate was diluted in PBS to a final Click reaction concentration of 2 mg/mL.
Click Chemistry. Reaction was started by mixing 30 μL of each sample with 15 μL of PBS based 3× Click reaction mixture containing (final concentrations): 100 μM Tris[(1-benzyl-1H-1,2,3triazol-4-yl)methyl]amine (TBTA, Click Chemistry Tools), 1 mM CuSO4, 40 μM tetramethylrhodamine (TAMRA)-azide (Click Chemistry Tools), 1 mM Tris(2-carboxyethyl)phosphine hydrochloride (TCEP, Thermo Fisher) and 15% tert-Butyl alcohol, and let to procced for 1 h at RT while gently shaking. Reactions were stopped by adding 4× Laemmli sample buffer and boiling at 95° C. for 5 min.
In gel fluorescence, western blotting and quantification. Samples were loaded to 8 or 10% SDS-polyacrylamide gels and run until the dye front left the gel. First, in-gel fluorescence was detected with ChemiDoc XRS+ (Biorad) using Rhodamine filter and then the proteins were transferred on nitrocellulose membrane, the membrane was blocked and probed for PARP-1 (1:3000) and alpha-tubulin (1:1000). Both antibodies were from cell signaling. Band intensities we quantified with ImageJ.
(§1) FIGS. 6A-6E. […] 0.1 μM ad-olaparib (chemical structure indicated in panel a) was added to the cells for 1 hour before undergoing a UV treatment for 5 minutes in cold PBS. Cells were lysed and sonicated in PBS (1% Triton X-100+1% SDS), clicked with TAMRA-azide and run out on SDS-PAGE. The gel was imaged for TAMRA and probed for PARP-1 (Bethyl Laboratories), and alpha-tubulin (X). FIGS. 6B, 6D) Quantification of western blot images. TAMRA or ADPr values are normalized to PARP-1 within each replicate and plotted as percentage compared to DMSO. Error bars indicate SEM (n=3-4). Statistical significance of off-rate calculated via multiple t-tests (p<0.05). […] Cells were subsequently treated with PARGi (10 μM) for 30 minutes, lysed using RIPA buffer, run out on SDS-PAGE, and probed for ADPr (Cell Signaling) and PARP-1 (Bethyl Laboratories). FIG. 6E) ES-8 cells were treated with indicated concentration of inhibitors for 72 hours before measuring cell viability using the CellTiter-Glo kit (Promega G7573). IC50 values were calculated using R statistical software.

[3] = system: Ewing sarcoma cell line EW-8; experiment: ES-8 viability screen (CellTiter-Glo); assay type: cell-based
Protocol: Cell viability was measured using the CellTiter-Glo (Promega, G7573) assay and read using an Envision (PerkinElmer) plate reader. Compound source plates (96-well) were prepared by solubilizing each drug in DMSO to a maximum concentration of 1-50 mM, then arraying samples in 10-point dose-response with 3-fold dilution. Positive and negative controls (staurosporine at 10 mM and DMSO, respectively) were added to the source plates. Drug was transferred from the source plate to the assay plate using a Biomek FX (Beckman Coulter) liquid handler equipped with a pin tool which transferred ˜100 nl into a final volume of 100 μl, resulting in ˜1000-fold dilution. At least two biological replicates (assay performed on different day with same drug plate and independent cell preparation) were obtained for each drug. To analyze the assay, the relative light unit signal in each well was first log 2 transformed, then normalized by subtracting the mean of the negative controls wells on each plate.
as §1

R878A PARP-1, sequence (P09874 whole entry R878A, the tested form may be a part): as the sequence (P09874 whole entry) above, with R878A counted along it

## (S)-4-(difluoro(3-(6-methyl-3-(trifluoromethyl)-5,6,7,8-tetrahydro-[1,2,4]triazolo[4,3-a]pyrazine-7-carbonyl)phenyl)methyl)phthalazin-1(2H)-one [AZ0108]
R878A PARP-1
  DNA binding to R878A PARP-1: similarly unaffected
PARP-1 [1]; 30 min inhibitor, then PARG inhibitor PDD00017273, read-out: EC50 inhibiting PARP-1 PARylation in HEK 293 cells
  EC50: 42.5 nM
PARP-1 [1]; FIG. 5F, nonlinear regression, read-out: IC50 of dose curves, quantification of western blot (ADPr normalized to PARP-1)
  IC50: 42.5 nM
PARP-1 [2]; 10 μM inhibitor, 0.1 μM ad-olaparib
  labeling of PARP-1 by ad-olaparib after pre-treatment: substantially blocked
PARP-1 [2]; washout (3 h)
  recovery of labeling of PARP-1 by ad-olaparib after washout: more than 2 fold
[3]; ratio of EC50 values
  Fold Difference to Pip6: 86
[3]; viability, 72 h
  EC50: 20 nM and 20.9 nM

From patent publication US20240317762A1, “PHTHALAZINONE-BASED PARP-1 INHIBITORS” (Oregon Health & Science University, priority 2021, published 2024)
